In patent US20250129012A1, “ANTI-INFLAMMATORY AND ANALGESIC COMPOUNDS AND USE THEREOF” (JIANGSU ATOM BIOSCIENCE AND PHARMACEUTICAL CO., LTD., priority 2021, published 2025):
Marks after values point to notes of the source that are not given here.

Experiments:
Format in all cases: in vivo, SD rats
IL-6 = experiment: Inflammatory factor experiment A: IL-6 in gouty arthritis rats; conditions: synovial tissue of knee joints; dose 0.6 mg/kg gavage; day 10
Method: (§1) Compounds 14, 17 and 26 were prepared by grinding with 0.5% CMC-Na before administration and into a suspension for gavage at the corresponding concentration (0.06 mg/mL), with a dosage volume of 10 mL/kg. Colchicine, purchased from Sun Chemical Technology (Shanghai) Co., Ltd. with batch no. 49ETRRAS, and was prepared by grinding with 0.5% CMC-Na before administration and into a suspension for gavage at the corresponding concentration (0.06 mg/mL), with a dosage volume of 10 mL/kg.
(§2) The compounds in each group were prepared into a suspension of the corresponding concentration, and the dosage volume was 10 mL/kg.
(§3) The crystalline arthritis model was prepared by intra-articular injection of urate crystals (40 mg/mL in the left ankle joint of each rat). Different doses of the test compounds were given separately by gavage administration. The day of administration was defined as day 1 of the experiment, and the compounds were administered once a day for 10 consecutive days (pre-administration of the drug for 7 days prior to modeling, modeling on day 8, and continuation of the drug for 3 days). The experiment ended on day 10. […]

[1] = system: gouty arthritis in rats (urate crystals, left ankle joint); experiment: Pharmacodynamics experiment A on gouty arthritis in rats: paw volume; conditions: for Paw volume versus model group, in words: time points after modeling; for Paw volume: Mean ± SEM
Method: (§4) Compounds 2, 17, 26 and 27 were prepared by grinding with 0.5% CMC-Na into a suspension of the corresponding concentration (0.06 mg/mL) for gavage before administration, and the volume of administration was 10 mL/kg. […] Before use, 0.5% CMC-Na was used for grinding and prepared into a suspension of the corresponding concentration (0.06 mg/mL) for gavage, and the volume of drug administered was 10 mL/kg.
(§5) Each group of subjects was prepared into a suspension of the corresponding concentration, and the administration volume was 10 mL/kg.
(§6) The crystalline arthritis model was prepared by intra-articular injection of urate crystals (40 mg/mL, in the left ankle joint of each rat). Different doses of the test drug were given separately by gavage administration. The day of administration was defined as day 1 of the experiment, and the drug was administered once a day for 10 consecutive days (pre-administration of the drug for 7 days prior to modeling, modeling on day 8, and continuation of the drug for 3 days). The experiment ended on day 10.
Paw volume was measured before administration, before urate injection, and 2, 4, 8, 10, 24, and 48 h after injection.
(§7) The data obtained from the experiment were statistically analyzed using IBM SPSS Statistics 22.0. All measurements were expressed as Mean±S.E.M s. The data were analyzed using SPSS 22.0 statistical software and variance chi-square test was performed on the parameters.

TNF-α = experiment: Inflammatory factor experiment A: TNF-α in gouty arthritis rats; conditions: synovial tissue of knee joints; dose 0.6 mg/kg gavage; day 10
Method: as §1, §2, §3

[2] = system: gouty arthritis in rats (urate crystals, left ankle joint); experiment: Pharmacodynamics experiment A on gouty arthritis in rats: pain score; parameters: Pain score: scale not given here; conditions: 0.6 mg/kg gavage; for Pain versus model group, in words: time points after modeling, P<0.05 or P<0.01; for Pain score: Mean ± SEM
Method: as §4, §5, §6
The pain level was scored using the flexion and extension joint pain test scoring method at the same time point.
as §7

[3] = system: gouty arthritis in rats (urate crystals, left ankle joint); experiment: Pharmacodynamics experiment A on gouty arthritis in rats: gait score; parameters: Gait Score: scale not given here; conditions: 0.6 mg/kg gavage; for Gait versus model group, in words: time points after modeling, P<0.05 or P<0.01; for Gait Score: Mean ± SEM
Method: as §4, §5, §6
The degree of lameness of the modeled joints was observed and scored at the same time point.
as §7

[4] = 2 h after modeling, 0.6 mg/kg gavage
[5] = 4 h after modeling, 0.6 mg/kg gavage
[6] = 8 h after modeling, 0.6 mg/kg gavage
[7] = 10 h after modeling, 0.6 mg/kg gavage
[8] = 24 h after modeling, 0.6 mg/kg gavage
[9] = 48 h after modeling, 0.6 mg/kg gavage
[10] = before modeling, 0.6 mg/kg gavage once a day

Structure (SMILES)	Decreased IL-6 percentage % (IL-6) [%]	Paw volume versus model group, in words ([1]; 0.6 mg/kg gavage)	Paw volume [1, 4]	Paw volume [1, 5]	Paw volume [1, 6]	Paw volume [1, 7] [cm^3]	Paw volume [1, 8]	Paw volume [1, 9]	Paw volume [1, 10] [cm^3]	Decreased TNF-α percentage % (TNF-α) [%]	Pain versus model group, in words [2]	Pain score ([2]; 2 h after modeling)	Pain score ([2]; 4 h after modeling)	Pain score ([2]; 8 h after modeling)	Pain score ([2]; 10 h after modeling)	Pain score ([2]; 24 h after modeling)	Pain score ([2]; 48 h after modeling)	Pain score ([2]; before modeling)	Gait versus model group, in words [3]	Gait Score ([3]; 2 h after modeling)	other results
COc1cc2c(c(OC)c1OC)-c1cc(C)c(=O)c(OC)cc1[C@@H](NC(C)=O)CC2 [Compound 17, (S)—N-(1,2,3,9-tetramethoxy-11-methyl-10-oxo-5,6,7,10-tetrahydrobenzo[a]heptalen-7-yl)acetamide]	132.54	significantly reduce the paw volume at 2 h, 8 h, 24 h, and 48 h	2.54 ± 0.02** cm^3	2.58 ± 0.02 cm^3	2.54 ± 0.04* cm^3	2.55 ± 0.03	2.41 ± 0.05** cm^3	2.23 ± 0.03*** cm^3	2.19 ± 0.03	107.16	significantly improved gait at 2 h, 8 h, and 24 h	3.10 ± 0.64	3.20 ± 0.66	3.00 ± 0.68	3.30 ± 0.54	1.30 ± 0.65	1.60 ± 0.70	0.00 ± 0.00	significantly improved the gait at 2 h, 8 h, and 24 h	1.00 ± 0.00	Gait Score ([3]; 4 h after modeling): 1.20 ± 0.13; Gait Score ([3]; 8 h after modeling): 1.00 ± 0.00; Gait Score ([3]; 10 h after modeling): 1.10 ± 0.10; Gait Score ([3]; 24 h after modeling): 1.10 ± 0.10; Gait Score ([3]; 48 h after modeling): 1.10 ± 0.10; Gait Score ([3]; before modeling): 0.00 ± 0.00
COc1cc2c(c(OC)c1OC)-c1ccc(OC3CCOC3)c(=O)cc1[C@@H](NC(C)=O)CC2 (stereo partly drawn) [Compound 26, (S)—N-(1,2,3-trimethoxy-9-oxo-10-[(tetrahydrofuran-3-yl)oxy]-5,6,7,9-tetrahydrobenzo[a]heptalen-7-yl)acetamide]	113.37	significantly reduce the paw volume at 2 h, 4 h, and 48 h	2.53 ± 0.04* cm^3	2.54 ± 0.03* cm^3	2.55 ± 0.04 cm^3	2.57 ± 0.05	2.47 ± 0.06 cm^3	2.34 ± 0.07* cm^3	2.19 ± 0.04	160.36	significantly improved gait at 2 h	3.00 ± 0.56	2.90 ± 0.67	4.30 ± 0.40	3.80 ± 0.59	3.20 ± 0.51	2.20 ± 0.73	0.00 ± 0.00	significantly improved the gait at 2 h, 8 h, and 24 h	1.00 ± 0.00	Gait Score ([3]; 4 h after modeling): 1.10 ± 0.10; Gait Score ([3]; 8 h after modeling): 1.20 ± 0.13; Gait Score ([3]; 10 h after modeling): 1.30 ± 0.15; Gait Score ([3]; 24 h after modeling): 1.10 ± 0.10; Gait Score ([3]; 48 h after modeling): 1.10 ± 0.10; Gait Score ([3]; before modeling): 0.00 ± 0.00
